# Results from ChEMBL document CHEMBL5390284, “Shikimate-Derived Meroterpenoids from the Ascidian-Derived Fungus Amphichorda felina SYSU-MS7908 and Their Anti-Glioma Activity” (J Nat Prod, 2023).
# Calls of active or inactive are those of the source. The calls are words filed in the database; no cut-off is given here.
# Key:
# U-87 MG [1] = assay: Antiproliferative activity against human U-87 MG cells assessed as inhibition of cell growth at 100 uM incubated for 48 hrs by MTT assay; format: functional
# U-251 [2] = assay: Antiproliferative activity against human U-251 cells assessed as inhibition of cell growth at 100 uM incubated for 48 hrs by MTT assay; format: functional
# T98G [3] = assay: Antiproliferative activity against human T98G cells assessed as inhibition of cell growth at 100 uM incubated for 48 hrs by MTT assay; format: functional, cell-based
# U-87 MG [4] = assay: Antiproliferative activity against human U-87 MG cells assessed as inhibition of cell growth incubated for 48 hrs by MTT assay; format: functional, cell-based, U-87MG ATCC
# T98G [5] = assay: Induction of apoptosis in human T98G cells assessed as late apoptotic cells at 450 uM incubated for 48 hrs by Annexin V-FITC/PI staining based flow cytometry analysis (reference value: 3.7 +/- 0.3 %); format: functional
# U-87 MG [6] = assay: Induction of apoptosis in human U-87 MG cells assessed as late apoptotic cells at 450 uM incubated for 48 hrs by Annexin V-FITC/PI staining based flow cytometry analysis (reference value: 11 +/- 1%); format: functional, U-87MG ATCC
# T98G [7] = assay: Induction of apoptosis in human T98G cells assessed as early apoptotic cells at 450 uM incubated for 48 hrs by Annexin V-FITC/PI staining based flow cytometry analysis (reference value: 2.7 +/- 0.5 %); format: functional
# U-251 [8] = assay: Induction of apoptosis in human U-251 cells assessed as total apoptotic cells at 450 uM incubated for 48 hrs by Annexin V-FITC/PI staining based flow cytometry analysis (reference value: 2.8 +/- 0.3%); format: functional
# U-87 MG [9] = assay: Induction of apoptosis in human U-87 MG cells assessed as total apoptotic cells at 450 uM incubated for 48 hrs by Annexin V-FITC/PI staining based flow cytometry analysis (reference value: 16 +/- 1%); format: functional, U-87MG ATCC
# U-251 [10] = assay: Induction of apoptosis in human U-251 cells assessed as late apoptotic cells at 450 uM incubated for 48 hrs by Annexin V-FITC/PI staining based flow cytometry analysis (reference value: 1.3 +/- 0.6%); format: functional
# U-251 [11] = assay: Antiproliferative activity against human U-251 cells assessed as inhibition of cell growth incubated for 48 hrs by MTT assay; format: functional, cell-based; conditions: U-251, 48 h
# U-251 [12] = assay: Induction of apoptosis in human U-251 cells assessed as early apoptotic cells at 450 uM incubated for 48 hrs by Annexin V-FITC/PI staining based flow cytometry analysis (reference value: 1.5 +/- 0.4 %); format: functional
# T98G [13] = assay: Induction of apoptosis in human T98G cells assessed as total apoptotic cells at 450 uM incubated for 48 hrs by Annexin V-FITC/PI staining based flow cytometry analysis (reference value: 6.4 +/- 0.8 %); format: functional
# U-87 MG [14] = assay: Induction of apoptosis in human U-87 MG cells assessed as early apoptotic cells at 450 uM incubated for 48 hrs by Annexin V-FITC/PI staining based flow cytometry analysis (reference value: 1.1 +/- 0.6 %); format: functional, U-87MG ATCC
# T98G [15] = assay: Antiproliferative activity against human T98G cells assessed as inhibition of cell growth incubated for 48 hrs by MTT assay; format: functional, cell-based
# U-251 [16] = assay: Induction of apoptosis in human U-251 cells assessed as late apoptotic cells at 10 uM incubated for 48 hrs by Annexin V-FITC/PI staining based flow cytometry analysis (reference value: 1.3 +/- 0.6%); format: functional
# U-87 MG [17] = assay: Induction of apoptosis in human U-87 MG cells assessed as total apoptotic cells at 5 uM incubated for 48 hrs by Annexin V-FITC/PI staining based flow cytometry analysis (reference value: 16 +/- 1%); format: functional, U-87MG ATCC
# U-251 [18] = assay: Induction of apoptosis in human U-251 cells assessed as total apoptotic cells at 2 uM incubated for 48 hrs by Annexin V-FITC/PI staining based flow cytometry analysis (reference value: 2.8 +/- 0.3%); format: functional
# U-87 MG [19] = assay: Induction of apoptosis in human U-87 MG cells assessed as late apoptotic cells at 10 uM incubated for 48 hrs by Annexin V-FITC/PI staining based flow cytometry analysis (reference value: 11 +/- 1%); format: functional, U-87MG ATCC
# T98G [20] = assay: Induction of apoptosis in human T98G cells assessed as early apoptotic cells at 2 uM incubated for 48 hrs by Annexin V-FITC/PI staining based flow cytometry analysis (reference value: 2.7 +/- 0.5 %); format: functional
# U-87 MG [21] = assay: Induction of apoptosis in human U-87 MG cells assessed as total apoptotic cells at 10 uM incubated for 48 hrs by Annexin V-FITC/PI staining based flow cytometry analysis (reference value: 16 +/- 1%); format: functional, U-87MG ATCC
# U-87 MG [22] = assay: Inhibition of cell invasion in human U-87 MG cells at 5 to 10 uM incubated for 48 hrs by crystal violet staining based fluorescent microscope analysis; format: functional; conditions: U-87MG ATCC, dose 5-10 µM
# U-251 [23] = assay: Induction of apoptosis in human U-251 cells assessed as late apoptotic cells at 5 uM incubated for 48 hrs by Annexin V-FITC/PI staining based flow cytometry analysis (reference value: 1.3 +/- 0.6%); format: functional
# T98G [24] = assay: Induction of apoptosis in human T98G cells assessed as late apoptotic cells at 2 uM incubated for 48 hrs by Annexin V-FITC/PI staining based flow cytometry analysis (reference value: 3.7 +/- 0.3 %); format: functional
# T98G [25] = assay: Induction of apoptosis in human T98G cells assessed as late apoptotic cells at 10 uM incubated for 48 hrs by Annexin V-FITC/PI staining based flow cytometry analysis (reference value: 3.7 +/- 0.3 %); format: functional
# U-251 [26] = assay: Induction of apoptosis in human U-251 cells assessed as early apoptotic cells at 10 uM incubated for 48 hrs by Annexin V-FITC/PI staining based flow cytometry analysis (reference value: 1.5 +/- 0.4 %); format: functional
# T98G [27] = assay: Induction of apoptosis in human T98G cells assessed as total apoptotic cells at 10 uM incubated for 48 hrs by Annexin V-FITC/PI staining based flow cytometry analysis (reference value: 6.4 +/- 0.8 %); format: functional
# U-251 [28] = assay: Inhibition of cell invasion in human U-251 cells at 5 to 10 uM incubated for 48 hrs by crystal violet staining based fluorescent microscope analysis; format: functional; conditions: dose 5-10 µM
# U-87 MG [29] = assay: Induction of apoptosis in human U-87 MG cells assessed as late apoptotic cells at 2 uM incubated for 48 hrs by Annexin V-FITC/PI staining based flow cytometry analysis (reference value: 11 +/- 1%); format: functional, U-87MG ATCC
# T98G [30] = assay: Induction of apoptosis in human T98G cells assessed as late apoptotic cells at 5 uM incubated for 48 hrs by Annexin V-FITC/PI staining based flow cytometry analysis (reference value: 3.7 +/- 0.3 %); format: functional
# U-87 MG [31] = assay: Induction of apoptosis in human U-87 MG cells assessed as early apoptotic cells at 10 uM incubated for 48 hrs by Annexin V-FITC/PI staining based flow cytometry analysis (reference value: 1.1 +/- 0.6 %); format: functional, U-87MG ATCC
# T98G [32] = assay: Induction of apoptosis in human T98G cells assessed as total apoptotic cells at 5 uM incubated for 48 hrs by Annexin V-FITC/PI staining based flow cytometry analysis (reference value: 6.4 +/- 0.8 %); format: functional
# T98G [33] = assay: Inhibition of cell migration in human T98G cells incubated for 48 hrs by inverted optical microscope based wound healing assay; format: functional
# U-251 [34] = assay: Inhibition of cell migration in human U-251 cells incubated for 48 hrs by inverted optical microscope based wound healing assay; format: functional
# U-87 MG [35] = assay: Induction of apoptosis in human U-87 MG cells assessed as early apoptotic cells at 5 uM incubated for 48 hrs by Annexin V-FITC/PI staining based flow cytometry analysis (reference value: 1.1 +/- 0.6 %); format: functional, U-87MG ATCC
# U-87 MG [36] = assay: Inhibition of cell migration in human U-87 MG cells incubated for 48 hrs by inverted optical microscope based wound healing assay; format: functional; conditions: U-87MG ATCC
# T98G [37] = assay: Induction of apoptosis in human T98G cells assessed as early apoptotic cells at 10 uM incubated for 48 hrs by Annexin V-FITC/PI staining based flow cytometry analysis (reference value: 2.7 +/- 0.5 %); format: functional
# U-87 MG [38] = assay: Induction of apoptosis in human U-87 MG cells assessed as late apoptotic cells at 5 uM incubated for 48 hrs by Annexin V-FITC/PI staining based flow cytometry analysis (reference value: 11 +/- 1%); format: functional, U-87MG ATCC
# U-251 [39] = assay: Induction of apoptosis in human U-251 cells assessed as early apoptotic cells at 2 uM incubated for 48 hrs by Annexin V-FITC/PI staining based flow cytometry analysis (reference value: 1.5 +/- 0.4 %); format: functional
# U-251 [40] = assay: Induction of apoptosis in human U-251 cells assessed as early apoptotic cells at 5 uM incubated for 48 hrs by Annexin V-FITC/PI staining based flow cytometry analysis (reference value: 1.5 +/- 0.4 %); format: functional
# T98G [41] = assay: Inhibition of cell invasion in human T98G cells at 5 to 10 uM incubated for 48 hrs by crystal violet staining based fluorescent microscope analysis; format: functional; conditions: dose 5-10 µM
# U-87 MG [42] = assay: Induction of apoptosis in human U-87 MG cells assessed as early apoptotic cells at 2 uM incubated for 48 hrs by Annexin V-FITC/PI staining based flow cytometry analysis (reference value: 1.1 +/- 0.6 %); format: functional, U-87MG ATCC
# U-87 MG [43] = assay: Induction of apoptosis in human U-87 MG cells assessed as total apoptotic cells at 2 uM incubated for 48 hrs by Annexin V-FITC/PI staining based flow cytometry analysis (reference value: 16 +/- 1%); format: functional, U-87MG ATCC
# T98G [44] = assay: Induction of apoptosis in human T98G cells assessed as total apoptotic cells at 2 uM incubated for 48 hrs by Annexin V-FITC/PI staining based flow cytometry analysis (reference value: 6.4 +/- 0.8 %); format: functional
# U-251 [45] = assay: Induction of apoptosis in human U-251 cells assessed as total apoptotic cells at 10 uM incubated for 48 hrs by Annexin V-FITC/PI staining based flow cytometry analysis (reference value: 2.8 +/- 0.3%); format: functional
# U-251 [46] = assay: Induction of apoptosis in human U-251 cells assessed as total apoptotic cells at 5 uM incubated for 48 hrs by Annexin V-FITC/PI staining based flow cytometry analysis (reference value: 2.8 +/- 0.3%); format: functional
# T98G [47] = assay: Induction of apoptosis in human T98G cells assessed as early apoptotic cells at 5 uM incubated for 48 hrs by Annexin V-FITC/PI staining based flow cytometry analysis (reference value: 2.7 +/- 0.5 %); format: functional
# U-251 [48] = assay: Induction of apoptosis in human U-251 cells assessed as late apoptotic cells at 2 uM incubated for 48 hrs by Annexin V-FITC/PI staining based flow cytometry analysis (reference value: 1.3 +/- 0.6%); format: functional
smiles,measurement,setting,value
CC(=O)O[C@@H]1C[C@]23O[C@H]2C2=C(C(=O)CC(C)(C)O2)[C@@H](O)[C@@H]3OC1(C)C,Activity,U-87 MG [1]; U-87MG ATCC,inactive
same,Activity,U-251 [2],inactive
same,Activity,T98G [3],inactive
CC1(C)CC(=O)c2cc3c(c(Cl)c2O1)C[C@@H](O)C(C)(C)O3,Activity,U-87 MG [1]; U-87MG ATCC,inactive
same,Activity,U-251 [2],inactive
same,Activity,T98G [3],inactive
CC1(C)CC(=O)C2=C(O1)C(=O)[C@@]1(O)C[C@@H](O)C(C)(C)O[C@H]1[C@@H]2O,Activity,U-87 MG [1]; U-87MG ATCC,inactive
same,Activity,U-251 [2],inactive
same,Activity,T98G [3],inactive
Cn1nnc2c(C(N)=O)ncn2c1=O [TEMOZOLOMIDE],IC50,U-87 MG [4],203 µM
same,Activity,T98G [5],9.9%
same,Activity,U-87 MG [6],11%
same,Activity,T98G [7],7.5%
same,Activity,U-251 [8],8.3%
same,Activity,U-87 MG [9],15%
same,Activity,U-251 [10],4.6%
same,IC50,U-251 [11],189 µM
same,Activity,U-251 [12],3.7%
same,Activity,T98G [13],18%
same,Activity,U-87 MG [14],4.2%
same,IC50,T98G [15],151 µM
C=C(C)C#C[C@]12O[C@H]1[C@@H]1OC(C)(C)[C@H](OC(C)=O)C[C@@]13O[C@H]3C2=O,IC50,U-87 MG [4],6.8 µM
same,Activity,U-251 [16],5.4%
same,Activity,U-87 MG [1],>50%
same,Activity,U-87 MG [17],30%
same,Activity,U-251 [18],3.2%
same,Activity,U-87 MG [19],67%
same,Activity,T98G [20],1.5%
same,Activity,U-87 MG [21],84%
same,inhibition,U-87 MG [22],Active
same,Activity,U-251 [23],6%
same,Activity,T98G [24],4.1%
same,Activity,T98G [25],6.5%
same,Activity,U-251 [26],5%
same,Activity,T98G [27],11%
same,inhibition,U-251 [28],Active
same,Activity,U-87 MG [29],18%
same,IC50,U-251 [11],20 µM
same,Activity,T98G [30],5.1%
same,Activity,U-87 MG [31],17%
same,Activity,U-251 [2],>50%
same,Activity,T98G [32],7.7%
same,inhibition,T98G [33],Dose-Dependent Effect
same,inhibition,U-251 [34],Dose-Dependent Effect
same,Activity,U-87 MG [35],16%
same,inhibition,U-87 MG [36],Dose-Dependent Effect
same,Activity,T98G [37],4.8%
same,Activity,U-87 MG [38],14%
same,Activity,U-251 [39],1.2%
same,Activity,U-251 [40],3.1%
same,inhibition,T98G [41],Active
same,Activity,U-87 MG [42],3.6%
same,Activity,U-87 MG [43],22%
same,Activity,T98G [44],5.6%
same,Activity,U-251 [45],10%
same,Activity,U-251 [46],9%
same,IC50,T98G [15],13 µM
same,Activity,T98G [47],2.6%
same,Activity,U-251 [48],2%
